Results from PubChem BioAssay AID200 (DTP/NCI, 2004).
Values joined by “and” are separate entries in the source; they are usually repeats but may differ in a detail not shown here. Identical values can stand only once. Toxic doses and inconclusive results are not listed.

Test system: B6C3F1 mice, B16 melanoma ip, median survival T/C
Test: NCI In Vivo Anticancer Drug Screen. Data for tumor model B16 Melanoma (intraperitoneal) in B6C3F1 mice
Details: endpoint: median survival time, schedule: Q01DX009 (ip), higher = longer survival
Procedure, shortened: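 Values are T/C ratios: the measurement in treated animals divided by that in vehicle-treated controls, using survival or tumor size in mice carrying transplantable tumors.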

[1] = dose: 12.5 mg/kg/injection, vehicle: saline
[2] = dose: 25.0 mg/kg/injection, vehicle: saline
[3] = dose: 50.0 mg/kg/injection, vehicle: saline
[4] = dose: 200.0 mg/kg/injection, vehicle: saline

C/C=C/C=C\C=C/C(O)CC(OP(=O)(O)O)C(C)(O)/C=C/C1CC=CC(=O)O1 (centres undefined) was tested, and the T/C (dose: 0.38 mg/kg/injection, vehicle: water) was 107 % of control, the T/C (dose: 0.75 mg/kg/injection, vehicle: water) was 117 % of control (2×) and 123 % of control and the T/C (dose: 6.0 mg/kg/injection, vehicle: water) was 157 % of control and 184 % of control.

In the case of O=[n+]1c2ccccc2n([O-])c2ccccc21.[Cl][Ni][Cl], the T/C (dose: 1.56 mg/kg/injection, vehicle: saline with Tween-80) was 103 % of control, the T/C (dose: 3.12 mg/kg/injection, vehicle: saline with Tween-80) was 95 % of control and the T/C (dose: 6.25 mg/kg/injection, vehicle: saline with Tween-80) was 97 % of control. The T/C (dose: 12.5 mg/kg/injection, vehicle: saline with Tween-80) was 113 % of control and the T/C (dose: 25.0 mg/kg/injection, vehicle: saline with Tween-80) was 91 % of control.

With Nc1n[n+](-c2ccccc2)no1 the T/C (dose: 3.12 mg/kg/injection, vehicle: water) was 98 % of control, the T/C (dose: 6.25 mg/kg/injection, vehicle: water) was 107 % of control and the T/C (dose: 12.5 mg/kg/injection, vehicle: water) was 118 % of control.

With O=C1N(CC2CO2)CCN1CC1CO1 (centres undefined) the T/C [1] was 117 % of control and 97 % of control, the T/C (dose: 12.5 mg/kg/injection, vehicle: suspension in saline) was 114 % of control and the T/C [2] was 118 % of control and 107 % of control. The T/C (dose: 25.0 mg/kg/injection, vehicle: suspension in saline) was 124 % of control, the T/C [3] was 115 % of control and the T/C (dose: 50.0 mg/kg/injection, vehicle: suspension in saline) was 165 % of control. For the same molecule, the T/C (dose: 100.0 mg/kg/injection, vehicle: suspension in saline) was 90 % of control and the T/C [4] was 122 % of control.

In the case of CC(C)NC(=O)OCc1c(COC(=O)NC(C)C)c(-c2ccc(Cl)c(Cl)c2)n2c1C[C@@H](O)C2, the T/C (dose: 5.0 mg/kg/injection, vehicle: water) was 160 % of control, the T/C (dose: 10.0 mg/kg/injection, vehicle: water) was 196 % of control and the T/C (dose: 20.0 mg/kg/injection, vehicle: Klucel (hydroxypropylcellulose) (HPC)) was 196 % of control. The T/C (dose: 20.0 mg/kg/injection, vehicle: water) was 289 % of control, the T/C (dose: 40.0 mg/kg/injection, vehicle: Klucel (hydroxypropylcellulose) (HPC)) was 223 % of control and the T/C (dose: 40.0 mg/kg/injection, vehicle: water) was 191 % of control. The T/C (dose: 80.0 mg/kg/injection, vehicle: Klucel (hydroxypropylcellulose) (HPC)) was 101 % of control.

For C=CCOCC1CO1 (centres undefined), the T/C [1] was 98 % of control and 99 % of control, the T/C [2] was 111 % of control and 101 % of control and the T/C [3] was 92 % of control and 103 % of control. For the same molecule, the T/C (dose: 100.0 mg/kg/injection, vehicle: saline) was 111 % of control and 104 % of control and the T/C [4] was 111 % of control and 99 % of control.

In the case of C[As](C)SCCC(N)C(=O)NC(CCS[As](C)C)C(=O)O (centres undefined), the T/C (dose: 6.25 mg/kg/injection, vehicle: Klucel (hydroxypropylcellulose) (HPC)) was 86 % of control, the T/C (dose: 12.5 mg/kg/injection, vehicle: Klucel (hydroxypropylcellulose) (HPC)) was 91 % of control and the T/C (dose: 25.0 mg/kg/injection, vehicle: Klucel (hydroxypropylcellulose) (HPC)) was 96 % of control. For the same molecule, the T/C (dose: 50.0 mg/kg/injection, vehicle: Klucel (hydroxypropylcellulose) (HPC)) was 96 % of control.

For O=C(NC(CSSCC(NC(=O)c1ccccc1)C(=O)O)C(=O)O)c1ccccc1 (centres undefined), the T/C (dose: 50.0 mg/kg/injection, vehicle: saline with Tween-80) was 109 % of control, the T/C (dose: 100.0 mg/kg/injection, vehicle: saline with Tween-80) was 108 % of control and the T/C (dose: 200.0 mg/kg/injection, vehicle: saline with Tween-80) was 106 % of control. The T/C (dose: 400.0 mg/kg/injection, vehicle: saline with Tween-80) was 100 % of control.
